Measurements published in patent US6630125B2, “18F-labeled choline analogs” (priority 2000, dated 2003).
“Also recorded” adds a separate entry of the source. Like-named read-outs stand apart in the source and are kept apart here.

Legend:
[1] = tested on: PC-3 human prostate cancer cells; test: Accumulation of radiotracers by cultured PC-3 cells; assay type: cell-based
Description: The incubation media utilized for the experiments differed according to the cancer cell type (Table 1). On the day of the study, the medium was refreshed using a volume of 1 ml in each well. Cells were incubated in control conditions or with the addition of metabolic and growth factor receptor inhibitors to test the sensitivity of uptake of the radiotracers to specific inhibitions. […] Following a 30-min incubation period, the radiotracers (e.g., FDG or FCH) were added (˜2 µCi/well) and the cells were incubated for 2 hr. The cells were washed three times with phosphate buffered saline solution, released from the plates by briefly incubating with 0.05% trypsin in DMEM, transferred to test tubes, and counted for F-18 radioactivity in a gamma counter. The amount of radioactivity in the cells was normalized by the dose administered to each well.
The present work studies the structure-activity relationships for purposes of optimization of the molecule for imaging prostate cancer. […] A number of structural analogs of choline were labeled as N-[^18F]fluoromethyl derivatives via the intermediate [^18F]fluorobromomethane (see Table 3). Uptake of the radiotracers was assessed in cultured PC-3 human prostate cancer cells and in a murine PC-3 xenograft model.

[2] = tested on: patients with brain tumors; test: PET imaging in patients with brain tumors; assay type: in vivo, human; conditions: 5 patients with resected brain tumors, after injection
Description: (§1) In breast cancer patients, whole-body PET scans were obtained, beginning at 10 min post-administration of FCH. In patients with brain tumors, PET scans of the brain were obtained, beginning at 5 min post-administration of FCH.
PET imaging was performed in 5 patients with resected brain tumors for evaluation of recurrence of cancer. Dynamic images were obtained over the brain for the first 15 min after injection of FCH (2.5-6 mCi). Transmission scans were acquired before injection of radiotracer for purposes of attenuation correction. […] Radioactivity concentration in normal brain tissue was very low, allowing excellent delineation of the tumor. […] (See FIG. 12)

[3] = Human dosimetry estimation (MIRDOSE 3.1 from mouse biodistribution)
Description: Urinary radioactivity was assumed to be retained within the urinary bladder. […] Since urinary excretion patterns in rodents are commonly more rapid than in the human, the assumption of no urinary clearance of radioactivity was precautionary. Bone uptake was distributed at the bone surfaces. The 70 kg adult male ORNL phantom was used since this would best reflect the primary study population (prostate carcinoma).

[4] = tested on: patients with breast cancer; test: PET imaging in patients with breast cancer; assay type: in vivo, human; conditions: person, metastatic breast cancer
Description: as §1
Thirteen patients with metastatic breast cancer and one patient with both primary and metastatic breast cancer were each imaged with both FCH-PET and FDG-PET within a period of less than one month.
A person had undergone re-excision of right breast intraductal carcinoma 4 yr prior, then right modified radical mastectomy 3 yr prior followed by tamoxifen chemotherapy. Six months prior to the PET scans, metastatic breast cancer was detected by palpation (right breast sternal mass) and CT (mediastinal and hilar adenopathies, mass in right anterior pelvis). Tamoxifen therapy was stopped. […] Uptake of FCH was also observed in the corresponding tumors: sternal mass (SUV=14.6), mediastinal and hilar adenopathies (SUVs˜8.5), pelvic mass (SUV=6.5). […] Smaller metastases were indicated on the FCH-PET scan in the right chest wall and left lung that were not seen on the FDG-PET scan. Concerning the anterior pelvic tumor, there was observed a homogenous distribution of FDG across the tumor in the FDG-PET scan, whereas the FCH was preferentially distributed on the periphery of the tumor.

[5] = tested on: mice with PC-3 xenografts
Description: Body weight and tumor volume were measured weekly and tumor volume (mm3) was calculated using the formula S2×L/2, where S and L represent the small and large diameters of the tumor, respectively.
A prescribed duration of time was allowed before procurement of heart, liver, lung, blood, kidney, bone (femur), brain (whole), prostate gland, tumor, bladder, and skeletal muscle. The tissues were weighed, and counted for ^18F in a gamma counter, then dissolved in Solvable (Dupont, Boston Mass.) and counted for ^14C in a liquid scintillation counter. For the bladder, the percentage of the injected dose in the urine was determined. For all other tissues, radiotracer uptake was calculated as: […]

[6] = calculated from mice biodistribution data

## C[N+](C)(CF)CCO.[Cl-] [FCH, dimethylfluoromethyl-2-hydroxyethylammonium chloride]
[1]
  uptake in cultured PC-3 cells: ~2 %/hr/100,000 cells plated
[1]; 5 mM hemicholinium-3
  Uptake by PC-3 cancer cells, HC-3: 0.18 ± 0.02 % dose/2 hr/105 cells plated
[1]; HC-3 versus control
  decrease in uptake by PC-3 cells with hemicholinium-3 (HC-3): 89%
[1]; PC-3 prostate cancer cells
  uptake of FCH relative to HARA-1: 3 fold
[1]; control conditions
  accumulation by cultured PC-3 cells compared with other tracers: similarly to CH
[1]; control, 2 hr incubation
  Uptake by PC-3 cancer cells, Control: 1.58 ± 0.18 % dose/2 hr/105 cells plated
[1]; inhibitor HC-3 (hemicholinium-3, 5 mM)
  Uptake by PC-3 cells: 0.160 ± 0.009 % dose/2 hr/10^5 cells plated
[1]; inhibitor none
  Uptake by PC-3 cells: 1.574 ± 0.033 % dose/2 hr/10^5 cells plated
[2]
  time to plateau of radiotracer concentration in the tumor: ≤ 5 min
[3]; 10 mCi administration
  effective dose equivalent (EDE): 1.1 rem
  largest organ dose (kidney): 8.1 rads/rems
[3]; calculated from mice FCH biodistribution data, 70 kg adult male phantom
  Human radiation dose estimate, Heart: 0.046 rads/mCi
[3]; [6]
  Human radiation dose estimate, Bladder wall: 0.049 rads/mCi
  Human radiation dose estimate, Bone: 0.038 rads/mCi
  Human radiation dose estimate, Brain: 0.0071 rads/mCi
  Human radiation dose estimate, Kidney: 0.81 rads/mCi
  Human radiation dose estimate, Liver: 0.30 rads/mCi
  Human radiation dose estimate, Lung: 0.043 rads/mCi
  Human radiation dose estimate, Muscle: 0.032 rads/mCi
  Human radiation dose estimate, Ovaries: 0.039 rads/mCi
  Human radiation dose estimate, Red marrow: 0.043 rads/mCi
  Human radiation dose estimate, Testes: 0.028 rads/mCi
[4]
  SUV of pelvic tumor / pelvic mass: 6.5
  SUV of sternal mass: 14.6
  SUVs of mediastinal and hilar adenopathies: ~8.5
[5]; 10 min
  Uptake in Blood: 2.7 ± 0.9 % dose kg/100 g
  Uptake in Brain: 0.8 ± 0.3 % dose kg/100 g
  Uptake in Heart: 15.5 ± 5.9 % dose kg/100 g
  Uptake in Kidney: 127.7 ± 27.6 % dose kg/100 g
  Uptake in Liver: 50.7 ± 15.3 % dose kg/100 g
  Uptake in Lung: 18.0 ± 5.3 % dose kg/100 g
  Uptake in Prostate: 6.6 ± 2.2 % dose kg/100 g
  Uptake in Skeletal Muscle: 4.4 ± 1.8 % dose kg/100 g
  Uptake in Tumor: 3.6 ± 0.6 % dose kg/100 g
[5]; 30 min
  Uptake in Blood: 3.3 ± 0.2 % dose kg/100 g
  Uptake in Brain: 1.0 ± 0.2 % dose kg/100 g
  Uptake in Heart: 13.2 ± 2.6 % dose kg/100 g
  Uptake in Kidney: 116 ± 17 % dose kg/100 g
  Uptake in Liver: 56.7 ± 13.2 % dose kg/100 g
  Uptake in Lung: 17.1 ± 1.4 % dose kg/100 g
  Uptake in Prostate: 7.1 ± 2.1 % dose kg/100 g
  Uptake in Skeletal Muscle: 1.1 ± 1.0 % dose kg/100 g
  Uptake in Tumor: 7.1 ± 2.1 % dose kg/100 g
[5]; 60 min
  Uptake in Blood: 1.5 ± 0.6 % dose kg/100 g
  Uptake in Brain: 0.8 ± 0.1 % dose kg/100 g
  Uptake in Heart: 12.7 ± 3.2 % dose kg/100 g
  Uptake in Kidney: 94.3 ± 31.0 % dose kg/100 g
  Uptake in Liver: 58.4 ± 40.6 % dose kg/100 g
  Uptake in Lung: 21 ± 4.4 % dose kg/100 g
  Uptake in Prostate: 7.1 ± 3.0 % dose kg/100 g
  Uptake in Skeletal Muscle: 4.1 ± 0.6 % dose kg/100 g
  Uptake in Tumor: 7.9 ± 5.0 % dose kg/100 g
[5]; PC-3 xenograft
  tumor uptake: ~0.07 % dose kg/g
[5]; at 30 min
  injected dose in the urinary bladder: 10%
[5]; at 60 min
  tumor:blood ratio: 5.3±2.4
[5]; mouse, in vivo
  liver uptake compared with CH: lower
  uptake by normal brain compared with other tracers: one tenth that for FDG; also recorded: one half that of CH
